In one assay the test system is ptc>dRet^M955T flies. The assay can be described thus: Fly rescue assay (Drosophila MTC model ptc>dRet^M955T). The assay is classed as in vivo. The following applies: compound in fly food; for rescue (percent viability of adult flies, adults/pupae×100): 13 d at 25° C., baseline viability 0%. Here is the method: Kinase-mutated fly stocks were obtained from Bloomington Drosophila Stock Center (BDSC; Bloomington, IN). The active mutant form of Drosophila Ret (dRet^955T) carries an M955T mutation corresponding to the M918T mutation commonly reported for multiple endocrine neoplasia (MEN) type 2B patients12,14,16,34. The ptc-gal4, UAS-GFP;UAS-dRet^M955T/SM5tub-gal80-TM6B transgenic flies were prepared according to standard protocols and crossed with non-transgenic w-flies (BDSC) to generate ptc-gal4, UAS-GFP; UAS-dRet^M955T(ptc>dRet^M955T) flies for chemical screening.
All drugs were synthesized in-house. All compounds were dissolved in DMSO (Sigma-Aldrich; St. Louis, MO) and mixed with semi-defined fly medium (BDSC) to make drug food (0.1% final DMSO concentration). For drug screening, ptc>dRet^M955T embryos were raised until adulthood on drug food for 13 d at 25° C. The number of empty pupal cases (i.e., adults) ? that of total pupal cases (P) to determine % viability. Fly randomization was used throughout the assays.
In this model, compounds are assessed based on their ability to suppress oncogenic Ret^M955T-induced tumors, which can be quantified as ‘rescue’ from lethality. […] The baseline viability of ptc>Ret^1955T flies was calibrated to zero, which creates a high bar for rescue but also reduces false-positive hits. Hundreds of flies are tested per condition (typical n values are […] administered through fly food.

The test system of assay [1] is HCC tumor organoids, SR (sorafenib resistant). The assay can be described thus: 3D HCC tumor organoid viability, SR model. The assay is classed as cell-based. Particulars: 5.0 μM, viability three days post drug administration. Here is the method: (§1) For assays in HCC tumor organoids, 96 well plates were first coated with a 50:50 solution of basal media:Matrigel ([…]), which polymerized for 15 minutes at 37° C. Tumor organoids were taken out of Matrigel, broken, and washed. Tumor organoids were seeded at 1,000 cells per well and were treated the following day with single doses of drugs in technical triplicate. Final DMSO concentrations were kept below 0.5%. Cell viability was measured three days post drug administration with either luminescence from CellTiter-Glo or absorbance at 560 and 590 nm from resazurin. Viability data was analyzed by normalizing individual drug-treated well values to DMSO-treated wells (BC=B-Catenin; SR=sorafenib resistant). Results of 3D HCC cell line data for pyrazolo- and pyrrolopyrimidine compounds at 0.5 μm (FIGS. 22A-F), 0.05 μm (FIGS. 23A-F), and 5.0 μm (FIGS. 24A-F) were obtained. […] In the BC model, at 5.0 μM, the top ten compounds were: APS-8-100-4, APS-8-52-3, APS-8-51-4, APS-7-25-2, APS-8-100-3, APS-8-51-3, APS-8-50-4, APS-8-52-4, and APS-7-38. In the SR model, at 5.0 μM, the top ten compounds were: APS-8-51-3, APS-8-50-4, APS-8-51-4, APS-8-52-3, APS-8-50-3, APS-7-52-2, APS-8-52-4, APS-7-52-1, and APS-8-100-4.

In assay [2] the test system is HCC tumor organoids, BC (B-Catenin). The assay can be described thus: 3D HCC tumor organoid viability, BC model. The assay is classed as cell-based. Particulars: 5.0 μM, viability three days post drug administration. Here is the method: as §1
For the next assay, the system named is RET (WT and M918T). Description: NanoBRET cell based target engagement assay. Particulars: RET-Nluc in HEK 293T cells, pyrazolo- and pyrrolopyrimidine series.
The subject of the next assay is AKSP CRC tumoroid line. Description: 3D CRC tumoroid viability, AKSP model. The assay is classed as cell-based, mice. Particulars: at 5.0 μM, viability after 72 hours. Here is the method:
To model different stages of colorectal cancer (CRC), intestinal organoids were derived from genetically engineered mice with the following genotypes Apc^flx/flx (A) and Apc^flx/flx Kra^LSL-G12D Smad4^flx/flx (AKS) and transformed ex vivo by addition of 100 nM 4-OHT for 24 hours. Once the organoids acquired a spheroid morphology characteristic of CRC Tumoroids, trp53 was knocked out in AKS tumoroids using CRISPR-CAS9 technology to generate the AKSP line. CRC tumoroid lines as well as wild type intestinal organoids were seeded onto Matrigel in 96 well plates in triplicates 16 hours before being treated with the indicated compounds at a final concentration of 0.5 μM. 72 hours later, cell viability was assessed using Titerglo® assay. Results of 3D CRC organoid line data for pyrazolo- and pyrrolopyrimidine compounds at 0.5 μm were obtained (FIGS. 25A-G). […] In the AKSP model, at 5.0 μM, the top ten compounds were: APS-8-35-3, APS-8-35-4, APS-6-87, APS-9-3, AD80, APS-8-85-2, APS-8-51-3, APS-9-2, and APS-8-56-4.

For assay [3], the system named is panel of 468 purified human kinases. The assay can be described thus: In vitro kinase percent inhibition, panel of 468 kinases (DiscoverX). The following applies: 1 μM; for binding to wild-type RET and RET^M918T, in words: kinase panel; for binding profile / selectivity across the kinome, in words: panel of 468 kinases. The assay is classed as binding. Here is the method:
Compounds were assayed against a panel of 468 purified human kinases (DiscoverX) to measure percentage inhibition values and derive kinome profiles (FIGS. 3B-3C). All compounds were screened at 1 μM, using two experimental replicates to determine percent inhibition values. Detailed procedures for kinase reactions and assay formats are described at http://www.discoverx.com. Raw data sets for individual compounds were filtered based on the variance of experimental replicates (cutoff=average variance+standard deviation).

“Also recorded” adds a separate entry of the source.

Procedure for RET (WT and M918T): Assays were completed in duplicate. […] FIG. 8D is a graph of the cell-based target engagement for the indicated compounds against wild-type and M918T RET. IC50 values were determined based on 8-point titration curves of free ligand. Competition assays were completed in technical triplicate against full-length human RET-Nluc expressed in 293T cells, complexed with an active-site fluorescent tracer.
In this assay, a bioluminescence resonance energy transfer (BRET) signal is generated between nanoLuciferase tagged RET (expressed in HEK 293T cells) and an active-site based fluorescent tracer. […] Using this assay, in vivo binding was determined for a series of compounds against mutant (M918T) and wild-type RET (FIG. 8D).

Consider `CC(C)n1cc(-c2ccc(NC(=O)Nc3ccc(C(F)(F)C(F)(F)C(F)(F)F)cc3)cc2)c2c(N)ncnc21.O=C(O)C(F)(F)F` [APS-8-51-4, 1-(4-(4-Amino-7-isopropyl-7H-pyrrolo[2,3-d]pyrimidin-5-yl)phenyl)-3-(4-(perfluoropropyl)phenyl)urea 2,2,2-trifluoroacetate], for which, in the assay on ptc>dRet^M955T flies, the “rescue activity in the fly model, in words” value (“rescue activity” for short) is recorded as “exceptional in vivo activity” and the “rescue (percent viability of adult flies, adults/pupae×100)” value amounted to 100%. Also, the “ranking by inhibition of cell proliferation, SR model” value (from here on “ranking by inhibition … SR model”) in assay [1] is recorded as “top ten”. Besides, the “ranking by inhibition of cell proliferation, BC model” value (“ranking by inhibition … BC model” for short) in assay [2] is “top ten”.

As to `CC(C)n1cc(-c2ccc(NC(=O)Nc3cc(C(F)(F)C(F)(F)F)ccc3F)cc2)c2c(N)ncnc21` [APS-7-38, 1-(4-(4-Amino-7-isopropyl-7H-pyrrolo[2,3-d]pyrimidin-5-yl)phenyl)-3-(2-fluoro-5-(perfluoroethyl)phenyl)urea], the “ranking by inhibition … BC model” value in assay [2] is listed as “top ten”.

In the case of `CC(C)n1cc(-c2ccc(NC(=O)Nc3cccc(C(F)(F)C(F)(F)C(F)(F)F)c3)cc2)c2c(N)ncnc21.O=C(O)C(F)(F)F` [APS-7-52-2, 1-(4-(4-Amino-7-isopropyl-7H-pyrrolo[2,3-d]pyrimidin-5-yl)phenyl)-3-(3-(perfluoropropyl)phenyl)urea 2,2,2-trifluoroacetate], in assay [1], the “ranking by inhibition … SR model” value was “top ten”.

With `CC(C)n1cc(-c2ccc(NC(=O)Nc3cc(C(F)(C(F)(F)F)C(F)(F)F)ccc3F)cc2)c2c(N)ncnc21` [APS-7-25-2, 1-(4-(4-Amino-7-isopropyl-7H-pyrrolo[2,3-d]pyrimidin-5-yl)phenyl)-3-(2-fluoro-5-(perfluoropropan-2-yl)phenyl)urea], in assay [2], the “ranking by inhibition … BC model” value is “top ten”.

As to `CC(C)n1nc(-c2ccc(NC(=O)Nc3ccc(C(F)(F)C(F)(F)F)cc3)cc2)c2c(N)ncnc21` [APS-8-100-3, 1-(4-(4-Amino-1-isopropyl-1H-pyrazolo[3,4-d]pyrimidin-3-yl)phenyl)-3-(4-(perfluoroethyl)phenyl)urea], in the assay on ptc>dRet^M955T flies, the “rescue activity” value is “exceptional in vivo activity” and the “rescue (percent viability of adult flies, adults/pupae×100)” value was determined as 100%. Moreover, the “cellular IC50 against RET, ranking in words” value (“cellular IC50 against RET” for short) with RET (WT and M918T) is “lowest IC50 values among the para-substituted compounds tested”. For the same compound, in assay [2], the “ranking by inhibition … BC model” value was “top ten”.

As for `CC(C)n1nc(-c2ccc(NC(=O)Nc3ccc(C(F)(C(F)(F)F)C(F)(F)F)cc3)cc2)c2c(N)ncnc21` [APS-8-50-3, 1-(4-(4-Amino-1-isopropyl-1H-pyrazolo[3,4-d]pyrimidin-3-yl)phenyl)-3-(4-(perfluoropropan-2-yl)phenyl)urea], the “ranking by inhibition … SR model” value in assay [1] is reported as “top ten”.

Turning to `CC(C)n1cc(-c2ccc(NC(=O)Nc3ccc(C(F)(F)F)cc3)cc2)c2c(N)ncnc21` [APS-8-85-2, 1-(4-(4-Amino-7-isopropyl-7H-pyrrolo[2,3-d]pyrimidin-5-yl)phenyl)-3-(4-(trifluoromethyl)phenyl)urea], in the assay with AKSP CRC tumoroid line, the “ranking by inhibition of cell proliferation, AKSP model” value is “top ten”.

Regarding `CC(C)n1cc(-c2ccc(NC(=O)Nc3ccc(C(F)(F)C(F)(F)F)cc3)cc2)c2c(N)ncnc21` [APS-8-100-4, 1-(4-(4-Amino-7-isopropyl-7H-pyrrolo[2,3-d]pyrimidin-5-yl)phenyl)-3-(4-(perfluoroethyl)phenyl)urea], in the assay with ptc>dRet^M955T flies, the “rescue activity” value is given as “exceptional in vivo activity” and the “rescue (percent viability of adult flies, adults/pupae×100)” value is listed as 100%. Moreover, the “cellular IC50 against RET” value with RET (WT and M918T) is “lowest IC50 values among the para-substituted compounds tested”. For the same compound, the “ranking by inhibition … SR model” value in assay [1] was “top ten”. Also, the “ranking by inhibition … BC model” value in assay [2] is “top ten”.

For `CC(C)n1nc(-c2ccc(NC(=O)Nc3cccc(C(F)(F)C(F)(F)C(F)(F)F)c3)cc2)c2c(N)ncnc21.O=C(O)C(F)(F)F` [APS-7-52-1, 1-(4-(4-Amino-1-isopropyl-1H-pyrazolo[3,4-d]pyrimidin-3-yl)phenyl)-3-(3-(perfluoropropyl)phenyl)urea 2,2,2-trifluoroacetate], the “ranking by inhibition … SR model” value in assay [1] is on record as “top ten”.

With `CC(C)n1nc(-c2ccc(NC(=O)Nc3ccc(C(F)(C(F)(F)F)C(F)(F)C(F)(F)F)cc3)cc2)c2c(N)ncnc21` (centres unmarked) [APS-8-6-2, 1-(4-(4-Amino-1-isopropyl-1H-pyrazolo[3,4-d]pyrimidin-3-yl)phenyl)-3-(4-(perfluorobutan-2-yl)phenyl)urea], the “rescue activity” value in the assay on ptc>dRet^M955T flies was “one of the highest rescues in the MTC fly assay; also recorded: exceptional in vivo activity”. Further, the “rescue (percent viability of adult flies, adults/pupae×100)” value in the assay with ptc>dRet^M955T flies (listed as 65) stood at 99%. The “cellular IC50 against RET” value with RET (WT and M918T) is on record as “highest IC50 values”. Besides, in assay [3], the “binding to wild-type RET and RET^M918T, in words” value is “more potent than 43 on wild-type and mutant RET”; the “binding profile / selectivity across the kinome, in words” value is on record as “generally promiscuous KI”. Also, in assay [3] (listed as 8-6-2), the “binding to wild-type RET and RET^M918T, in words” value was “highly potent on both wild-type and RET^M918T”; the “binding profile / selectivity across the kinome, in words” value was “overall selectivity profile in between 4-9-8 and 8-82-1”.

Turning to `CC(C)n1cc(-c2ccc(NC(=O)Nc3ccc(C(F)(C(F)(F)F)C(F)(F)F)cc3)cc2)c2c(N)ncnc21` [APS-8-50-4, 1-(4-(4-Amino-7-isopropyl-7H-pyrrolo[2,3-d]pyrimidin-5-yl)phenyl)-3-(4-(perfluoropropan-2-yl)phenyl)urea], the “ranking by inhibition … SR model” value in assay [1] was “top ten”. In addition, the “ranking by inhibition … BC model” value in assay [2] is “top ten”.

Consider `CC(C)n1cc(-c2ccc(NC(=O)Nc3ccc(C(F)(F)C(F)(F)C(F)(F)C(F)(F)F)cc3)cc2)c2c(N)ncnc21` [APS-8-52-4, 1-(4-(4-Amino-7-isopropyl-7H-pyrrolo[2,3-d]pyrimidin-5-yl)phenyl)-3-(4-(perfluorobutyl)phenyl)urea], for which, in assay [1], the “ranking by inhibition … SR model” value was “top ten”. For the same compound, the “ranking by inhibition … BC model” value in assay [2] was “top ten”.

With `CC(C)n1nc(-c2ccc(NC(=O)Nc3ccc(C(F)(F)C(F)(F)C(F)(F)C(F)(F)F)cc3)cc2)c2c(N)ncnc21` [APS-8-52-3, 1-(4-(4-Amino-1-isopropyl-1H-pyrazolo[3,4-d]pyrimidin-3-yl)phenyl)-3-(4-(perfluorobutyl)phenyl)urea], the “ranking by inhibition … SR model” value in assay [1] is reported as “top ten”. The “ranking by inhibition … BC model” value in assay [2] is recorded as “top ten”.

Values taken from patent US20240287081A1, “PERFLUOROALKANE SUBSTITUTED PYRAZOLO[3,4-D]PYRIMIDIN AND PYRROLO[2,3-D]PYRIMIDIN COMPOUNDS AND USES THEREOF” (ICAHN SCHOOL OF MEDICINE AT MOUNT SINAI, priority 2021, published 2024).
